Patent US20260116845A1, “LIPIDS AND COMPOSITIONS THEREOF” (Kernal Biologics, Inc., priority 2023, published 2026)

What was measured:
B16F10 Cell Line = assay: Transfection of B16F10 Cell Line with FLuc mRNA LNPs (ONE-Glo EX luciferase signal); format: cell-based; details: 200 ng Fluc mRNA-LNP, 24 hours; Table 4
Procedure: (§1) mRNA encapsulated lipid nanoparticles (mRNA LNPs) were formulated using microfluidic mixing with a PNI Ignite instrument. Briefly, lipids (ionizable: structural: helper: PEG) were dissolved in ethanol and mixed with and aqueous solution of mRNA. These mRNA-loaded dispersions were then neutralized via a buffer exchange with a pre-determined buffer overnight. Afterwards, formed LNPs were concentrated with Amicon filter centrifugation, filtered, concentration of mRNA determined through a ribogreen assay, and frozen at −80° C. until use.
(§2) Cell lines were grown to confluence in T75 flasks using complete media of DMEM-F12 for AML12 and DMEM for both B16F10 and MC38.K. Cells were plated in a white 96 flat-well plate (AML12=20,000 cells/well, B16F10 and MC38.K=5,000 cells/well) with their respected media. Lipid nanoparticles were first diluted to 50 μg/ml using Opti-MEM and pre-incubated with mouse serum for 30 minutes to give an LNP concentration of 8 μg/ml. Cell media was replaced with Opti-MEM and LNPs were added to cells (200 ng of mRNA-LNP), placed back in the incubator, and allowed to transfect for 24 hours. Afterwards, 100 μl of Promega's ONE-Glo™ EX Luciferase Assay System or Promega's CellTiter-Glo® Luminescent Cell Viability Assay was added and mixed in their respective wells, followed by recording luminescence signals on a Thermo Scientific Varioskan LUX multimode microplate reader. The results are shown in FIG. 1, FIG. 2, FIG. 3, FIG. 4, FIG. 5, FIG. 6, FIG. 10, FIG. 11, and FIG. 21.

MC38.K Cell Line = assay: Transfection of MC38.K Cell Line with FLuc mRNA LNPs (ONE-Glo EX luciferase signal); format: cell-based; details: 200 ng Fluc mRNA-LNP, 24 hours; Table 4
Procedure: as §1, §2

AML12 Cell Line = assay: Transfection of AML12 Cell Line with FLuc mRNA LNPs (ONE-Glo EX luciferase signal); format: cell-based; details: 200 ng Fluc mRNA-LNP, 24 hours; Table 4
Procedure: as §1, §2

Liver = assay: Ex-vivo luminescence signal from liver after IV Fluc mRNA LNPs in CD1 mice (IVIS); details: tail vein 1.0 mg/kg Day 0 and Day 2, imaging 18 hours after second dose, Table 4

SMILES | Total Luciferin Signal (RLU) In Vitro - B16F10 (B16F10 Cell Line) | Total Luciferin Signal (RLU) In Vitro - MC38.K (MC38.K Cell Line) | Total Luciferin Signal (RLU) In Vitro - AML12 (AML12 Cell Line) | Total Liver Tissue Luciferin Signal (Photons/s) Ex-vivo - CD1 (Liver) | Total Liver Tissue Luciferin Signal (Photons/s) In Vitro - CD1 (Liver)
CCCCCCCCCOC(=O)CCCCCCCN(CCCCCCCC(=O)OC(CCCCCCCC)CCCCCCCCF)CCN(C)C (stereo not shown) [Compound 56, 1-fluoroheptadecan-9-yl 8-((2-(dimethylamino)ethyl)(8-(nonyloxy)-8-oxooctyl)amino)octanoate] | 1.54E+07 RLU | 2.52E+07 RLU | 6.63E+06 RLU | 1.77E+09 Photons/s | 
CCCCCCCCCC(=O)OCCCCCCCN(CCO)CCCCCCCC(=O)OC(CCCCCCCC)CCCCCCCCF (stereo not shown) [Compound 32] | 2.09E+05 RLU | 4.43E+05 RLU | 1.53E+05 RLU | 3.13E+09 Photons/s | 
CCCCCCCCC(CCCCCCCC)OC(=O)CCCCCCCN(CCO)CCCCCC(=O)OCCCCCCCCC(C)C [Compound 1] | 6.92E+06 RLU | 7.83E+06 RLU | 1.96E+06 RLU | 9.00E+09 Photons/s | 
CCCCCCCCCCCCN(CCO)CCCCCC(=O)OCCCCCCCCCCC [Compound 42] | 1.91E+04 RLU | 5.65E+04 RLU | 2.36E+04 RLU |  | 2.04E+06 Photons/s
CCCCCCCCCOC(=O)CCCCCCCN(CCCCO)CCCCCCCC(=O)OCC(CCCCCC)CCCCCCCCF (stereo not shown) [Compound 71, 10-fluoro-2-hexyldecyl 8-((4-hydroxybutyl)(8-(nonyloxy)-8-oxooctyl)amino)octanoate] | 1.67E+06 RLU | 1.57E+07 RLU | 4.77E+06 RLU | 1.75E+09 Photons/s | 
CCCCCCCCCOC(=O)C(C)CCCCCCN(CCO)CCCCCCCC(=O)OC(CCCCCCCC)CCCCCCCC (stereo not shown) [Compound 37] | 2.66E+06 RLU | 1.00E+06 RLU | 7.63E+05 RLU | 6.65E+09 Photons/s | 
CCCCCCCCC(CCCCCCCCF)OC(=O)CCCCCCCN(CCO)CCCCCC(=O)OCCCCCCC(C)C (stereo not shown) [Compound 57, 1-fluoroheptadecan-9-yl 8-((2-hydroxyethyl)(6-((7-methyloctyl)oxy)-6-oxohexyl)amino)octanoate] | 1.27E+06 RLU | 1.42E+07 RLU | 2.63E+06 RLU | 1.05E+10 Photons/s | 
[2H]C([2H])(O)C([2H])([2H])N(CCCCCCCC(=O)OCCCCCCCCC)CCCCCCCC(=O)OC(CCCCCCCC)CCCCCCCC [Compound 39, heptadecan-9-yl 8-((2-hydroxyethyl-1,1,2,2-d4)(8-(nonyloxy)-8-oxooctyl)amino)octanoate] | 3.58E+05 RLU | 8.82E+05 RLU | 6.92E+05 RLU |  | 7.86E+06 Photons/s
CCCCCCCCCCCOC(=O)CCCCCN(CCO)CCCCCCCC(=O)OC(CCCCCCCC)CCCCCCCF (stereo not shown) [Compound 24] | 3.37E+05 RLU | 7.60E+05 RLU | 5.98E+05 RLU | 1.04E+10 Photons/s | 
CCCCCCCCC(CCCCCCCCF)OC(=O)CCCCCCCN(CCO)CCCCCC(=O)OC(CCCCCCCC)CCCCCCCC (stereo not shown) [Compound 35] | 4.43E+05 RLU | 4.52E+05 RLU | 1.57E+05 RLU | 1.51E+10 Photons/s | 
CCCCCCCCCCCCN(CCO)CCCCCCCC(=O)OC(CCCCCCCC)CCCCCCCC [Compound 41] | 2.52E+06 RLU |  | 3.63E+06 RLU | 8.12E+09 Photons/s | 
CCCCCCCCCOC(=O)CCCCCCCN(CCO)CCCCCCCCOC(=O)C(CCCC)CCCCCCF (stereo not shown) [Compound 82, 8-((2-hydroxyethyl)(8-(nonyloxy)-8-oxooctyl)amino)octyl 2-butyl-8-fluorooctanoate] | 1.70E+04 RLU | 6.18E+04 RLU | 1.48E+04 RLU |  | 
